Values after ≈ are worked out from the molar mass of the structure shown. Like-named read-outs stand apart in the source and are kept apart here.

Data set [1] deals with recombinant Tulahuen clone C4 of T. cruzi. The following applies: read-out: IC50 T. cruzi; cited from earlier work.
In data set [2] the test system is chloroquine-resistant strain (Indocrina W2) of Plasmodium falciparum. The conditions noted are these: cited from earlier work.
In data set [3] the test system is amastigotes of L. donovani (LD-1S/MHOM/SD/00-strain 1S). The conditions noted are these: cited from earlier work.
The test system of data set [4] is human breast cancer cell line MCF-7. The conditions noted are these: read-out: IC50 cytotoxic activity MCF-7; cited from earlier work.
Data set [5] has as its system amastigotes of L. donovani (LD-1S/MHOM/SD/00-strain 1S). The data set is described as follows: In vitro antiparasitic assay: Leishmania. The conditions noted are these: read-out: typical IC50 response of L. donovani. It counts as cell-based.
Data set [6] deals with P. falciparum (K1, multidrug-resistant strain). The conditions noted are these: cited from earlier work.
The subject of data set [7] is Vero cells. The conditions noted are these: cited from earlier work.
Data set [8] relates to Vero cells. The data set is described as follows: Vero cell toxicity. The following applies: Vero cells versus L. donovani.
Data set [9] deals with Leishmania promastigote and amastigote forms. The conditions noted are these: cited from earlier work.
In data set [10] the test system is Vero cells.
Data set [11] deals with T. cruzi. The following applies: cited from earlier work.
Data set [12] deals with African trypanosomiasis. The conditions noted are these: mice; cited from earlier work.
Where [13] appears, read: read-out: IC50 P. falciparum K1, K1, multidrug-resistant strain.
[14] abbreviates: read-out: cytotoxicity to Vero cells IC50.
The mark [15] stands for this setting: read-out: IC50 growth of Leishmania donovani in the amastigote form.
The mark [16] stands for this setting: read-out: IC50 P. falciparum K1 strain, in vitro.

For orientation: IC50 means the concentration needed to halve the response being measured. As to `COc1c(CC(C)O)c2c3c(CC(C)O)c(OC)c(=O)c4c(O)cc5c(c6c(cc(O)c(c1=O)c62)OCO5)c43` (stereo not shown) [Compound 7, cercosporin], the IC50 in data set [1] is 1.08 µM; in [2] (read-out: IC50 P. falciparum), 1.03 µM; in data set [3] (read-out: IC50 L. donovani), 0.46 µM; in data set [4] it was 4.68 µM.
With `C[C@@H]1[C@H](O)[C@@H](C)/C=C/C=C/C=C/C=C/C=C/C=C/C=C/[C@H](O[C@@H]2O[C@H](C)[C@@H](O)[C@H](N)[C@@H]2O)C[C@@H]2O[C@](O)(C[C@@H](O)C[C@@H](O)[C@H](O)CC[C@@H](O)C[C@@H](O)CC(=O)O[C@H]1C)C[C@H](O)[C@H]2C(=O)O` [Amphotericin B], the IC50 in data set [5] is 0.07 to 0.12 µg/mL (≈ 0.0758 to 0.13 µM).
For `CCC[C@H]1C[C@H]2OC(=O)c3c(cc(OC)c(OC)c3O)[C@H]2O1` [Monocerin], in data set [6] (setting [13]), the IC50 is 0.68 µM.
On to `O=C1CCC2(Oc3cccc4cccc(c34)O2)c2cccc(O)c21` [Compound 1, Palmarumycin CP2], for which the IC50 was 162 µM in data set [7] (setting [14]) and 3.93 µM in data set [3] (setting [15]). The “therapeutic window: times greater anti-leishmanial activity than cytotoxicity” value (“therapeutic window” below) in [8] is 41 times.
For the molecule `CC(C)C[C@@H](C(=O)N[C@H]1COC(=O)[C@H](Cc2ccccc2)N(C)C(=O)[C@H](CC(C)C)N(C)C(=O)[C@@H](NC(=O)[C@H](CC(C)C)N(C)C)COC(=O)[C@H](Cc2ccccc2)N(C)C(=O)[C@H](CC(C)C)N(C)C1=O)N(C)C` [IB-01212], the leishmanicidal activity result in data set [9] is reported as “low micromolar concentrations”.
As for `COC1=CC(=O)C(Cl)=C(C)C1=O` [2-chloro-5-methoxy-3-methylcyclohexa-2,5-diene-1,4-dione], the IC50 in data set [6] (setting [16]) is 1.84 µM.
Consider palmarumycin CP18 [Compound 3], for which the “therapeutic window” value in [10] is reported as 245 times. The IC50 is 152 µM in data set [7] and 0.62 µM in data set [3] (setting [15]).
Turning to `CC[C@@H](O)[C@@H]1C[C@@H]2OC(=O)c3c(cc(OC)c(OC)c3O)[C@@H]2O1` [11-hydroxymonocerin], in data set [6] (setting [13]), the IC50 is 7.7 µM.
On to `COc1cc2c3c(oc2c(C)c1O)C(=O)C(C)=CC3=O` [xylariaquinone A], for which the IC50 in data set [6] (setting [16]) was 6.68 µM.
palmarumycin CP19 [Compound 4]: the “therapeutic window” value in [10] turned out to be 18 times. Also, the IC50 in data set [7] is 140 µM; in data set [3] (setting [15]), 11.6 µM.
Regarding `COc1cccc2oc3c(Cl)c(O)c([C@H]4CCC[C@@H](C)O4)c(O)c3c(=O)c12` [Chaetoxanthone C], the “IC50 T. cruzi” value in [11] was 1.5 µg/mL (≈ 3.84 µM).
For `CCN(CC)CCCC(C)Nc1ccnc2cc(Cl)ccc12` (stereo not shown) [Chloroquine, reference compound], the IC50 in data set [2] (positive control) was 0.08 to 0.1 µM.
Regarding `Oc1cccc2c1[C@@H](O)CCC21Oc2cccc3cccc(c23)O1` [Compound 5, CJ-12,371], the values for the IC50 in data set [7] (setting [14]) and in data set [3] (setting [15]) were 9 µM and 8.4 µM, respectively. For the same molecule, in data set [8], the “therapeutic window” value is 75 times.
For `O=C1CCC2(Oc3cccc4cccc(c34)O2)c2c(O)ccc(O)c21` [Compound 2, palmarumycin CP17], the figures for the IC50 in data set [7] (setting [14]) and in [3] (setting [15]) were 174 µM and 1.34 µM, respectively. For the same molecule, the “therapeutic window” value in [8] is on record as 130 times.
In the case of `O=C1C=C[C@]23Oc4ccc(O)c5c4[C@](CCC5=O)(Oc4cccc1c42)O3` [Compound 6, preussomerin EG^1], the values for the IC50 in [7] (setting [14]) and in data set [3] (setting [15]) were 150 µM and 0.12 µM, respectively. For the same molecule, the “therapeutic window” value in [8] is reported as 12 times.
As for `C/C(=C\Cc1c(O)c(Cl)c(C)c(C=O)c1O)CC/C=C(\C)[C@@H]1CC(=O)C(C)(C)O1` [Ascofuranone], the “therapeutic effects for African trypanosomiasis” value in data set [12] is “good therapeutic effects”.

(Values after publication PMC3375117 (International Microbiology, 2011).)
